Assay results from patent US11840686B2, “Modulation of prekallikrein (PKK) expression” (Ionis Pharmaceuticals, Inc., priority 2013, dated 2023).
Strand notation (5' to 3'): a small letter for the sugar, then the base; units joined by * are phosphorothioate-linked, units joined directly phosphodiester-linked; [ ] holds rarer units or linkages, { } end groups; capitals alone tell only the bases. e = 2'-O-(2-methoxyethyl) (MOE); k = constrained ethyl (cEt); [5mC] = 5-methylcytosine; d = 2'-deoxy (DNA)

Experiments:
human PKK mRNA [1] = experiment: Antisense inhibition of human PKK mRNA in HepaRG cells, 1,000 nM, MOE/deoxy/cEt oligonucleotides (Example 3); type: cell-based
Summary of the method: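 Readout is percent PKK mRNA reduction against untreated controls, by real-time PCR (RTS3454) adjusted for total RNA via RIBOGREEN. Oligonucleotides, phosphorothioate gapmers of 16 nucleosides with cEt, MOE and deoxy sugars, were delivered at 1,000 nM by electroporation to 20,000 HepaRG cells/well for roughly 24 h.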

human PKK mRNA [2] = experiment: Dose-dependent antisense inhibition of human PKK in HepaRG cells, 0.11-3.00 uM (Example 6); type: cell-based; details: for IC50: 0.11-3.00 μM; for percent inhibition of PKK mRNA, 0.11 μM / percent inhibition of PKK mRNA, 0.33 μM / percent inhibition of PKK mRNA, 1.00 μM / percent inhibition of PKK mRNA, 3.00 μM: electroporation, approx. 16 hours, relative to untreated control cells
Experimental: Cells were plated at a density of 20,000 cells per well and transfected using electroporation with 0.11 μM, 0.33 μM, 1.00 μM, and 3.00 μM concentrations of antisense oligonucleotide. After a treatment period of approximately 16 hours, RNA was isolated from the cells and PKK mRNA levels were measured by quantitative real-time PCR. Human PKK primer probe set RTS3454 was used to measure mRNA levels. PKK mRNA levels were adjusted according to total RNA content, as measured by RIBOGREEN®. The antisense oligonucleotides were tested in a series of experiments that had similar culture conditions.
The half maximal inhibitory concentration (IC50) of each oligonucleotide is also presented.

[3] = HepaRG cells, electroporation with 1,000 nM antisense oligonucleotide, approximately 24 hours, primer probe set RTS3454, relative to untreated control cells, experiment of Table 23
[4] = HepaRG cells, electroporation with 1,000 nM antisense oligonucleotide, approx. 24 hours, PKK mRNA by RT-PCR (RTS3454), relative to untreated control cells, Table 25 experiment
[5] = HepaRG cells, electroporation with 1,000 nM antisense oligonucleotide, approximately 24 hours, primer probe set RTS3454, relative to untreated control cells, experiment of Table 24
[6] = HepaRG cells, 1,000 nM antisense oligonucleotide, Table 29

| Substance | % inhibition (human PKK mRNA [1]; [3]) [%] | IC50 (human PKK mRNA [2]) [nM] | percent inhibition of PKK mRNA, 0.11 μM (human PKK mRNA [2]) [%] | percent inhibition of PKK mRNA, 0.33 μM (human PKK mRNA [2]) [%] | percent inhibition of PKK mRNA, 1.00 μM (human PKK mRNA [2]) [%] | percent inhibition of PKK mRNA, 3.00 μM (human PKK mRNA [2]) [%] | % inhibition (human PKK mRNA [1]; [4]) [%] | % inhibition (human PKK mRNA [1]; HepaRG cells, electroporation with 1,000 nM antisense oligonucleotide, approx. 24 hours, PKK mRNA by RT-PCR (RTS3454), relative to untreated control cells, Table 26 experiment) [%] | % inhibition (human PKK mRNA [1]; [5]) [%] | % inhibition (human PKK mRNA [1]; PKK mRNA, HepaRG cells, 1,000 nM antisense oligonucleotide, Table 31) [%] | % inhibition (human PKK mRNA [1]; Table 30, human PKK mRNA, HepaRG cells, 1,000 nM antisense oligonucleotide) [%] | % inhibition (human PKK mRNA [1]; [6]) [%] | % inhibition (human PKK mRNA [1]; Table 28, HepaRG cells, 1,000 nM antisense oligonucleotide, human PKK mRNA) [%] | % inhibition (human PKK mRNA [1]; Table 19, HepaRG cells, electroporation with 1,000 nM antisense oligonucleotide, approximately 24 hours, PKK mRNA by RT-PCR (RTS3454), relative to untreated control cells) [%] | % inhibition (human PKK mRNA [1]; Table 20, HepaRG cells, electroporation with 1,000 nM antisense oligonucleotide, approximately 24 hours, PKK mRNA by RT-PCR (RTS3454), relative to untreated control cells) [%] | % inhibition (human PKK mRNA [1]; Table 22 experiment, HepaRG cells, electroporation with 1,000 nM antisense oligonucleotide, approx. 24 hours, PKK mRNA by RT-PCR (RTS3454), relative to untreated control cells) [%] |
| --- | --- | --- | --- | --- | --- | --- | --- | --- | --- | --- | --- | --- | --- | --- | --- | --- |
| 547943 (eT*eG*kG*dT*dG*dT*dG*d[5mC]*d[5mC]*dA*d[5mC]*dT*dT*kT*k[5mC]*eA; antisense) [compound 547943] | 83 | 200 | 33 | 70 | 87 | 90 | – | – | – | – | – | – | – | – | – | – |
| 548201 (eT*eG*kT*dT*d[5mC]*dT*dA*dA*dT*dG*dT*dG*dG*k[5mC]*kA*e[5mC]; antisense) [compound 548201] | – | 800 | 0 | 7 | 70 | 85 | 67 | – | – | – | – | – | – | – | – | – |
| 548278 (antisense eG*eG*kT*dT*d[5mC]*d[5mC]*d[5mC]*dT*dA*dG*d[5mC]*dG*dG*kT*k[5mC]*e[5mC]) [compound 548278] | – | 400 | 3 | 59 | 78 | 93 | – | 74 | – | – | – | – | – | – | – | – |
| 548046 (eT*eA*kT*d[5mC]*dA*dT*dG*dA*dT*dT*d[5mC]*d[5mC]*d[5mC]*kT*kT*e[5mC]; antisense) [compound 548046] | – | 700 | 7 | 35 | 64 | 77 | – | – | 84 | – | – | – | – | – | – | – |
| 548055 (eG*eT*kA*dA*dT*dT*d[5mC]*dA*dA*dA*dG*dG*dA*kG*k[5mC]*e[5mC]; antisense) [compound 548055] | – | 300 | 43 | 57 | 50 | 88 | – | – | 78 | – | – | – | – | – | – | – |
| 548217 (e[5mC]*eT*kG*dT*dG*d[5mC]*dA*dT*dA*dG*dA*d[5mC]*d[5mC]*k[5mC]*k[5mC]*eA; antisense) [compound 548217] | – | 900 | 22 | 24 | 54 | 71 | 69 | – | – | – | – | – | – | – | – | – |
| 548655 (antisense e[5mC]*e[5mC]*k[5mC]*dG*dA*dG*dG*dT*d[5mC]*dA*d[5mC]*dA*dT*kA*kA*eT) [compound 548655] | – | > 3000 | 0 | 0 | 8 | 33 | – | – | – | 56 | – | – | – | – | – | – |
| 548424 (antisense e[5mC]*eA*kG*dT*dA*dT*d[5mC]*dA*d[5mC]*dT*dG*dT*d[5mC]*k[5mC]*kT*eA) [compound 548424] | – | 300 | 17 | 67 | 86 | 72 | – | – | – | – | 90 | – | – | – | – | – |
| 548547 (antisense eG*eT*kG*d[5mC]*dG*dA*dT*dT*dA*dA*dG*d[5mC]*d[5mC]*k[5mC]*k[5mC]*eA) [compound 548547] | – | 400 | 30 | 41 | 76 | 90 | – | – | – | – | – | 86 | – | – | – | – |
| 548024 (eG*e[5mC]*kT*dG*dT*d[5mC]*dA*dG*d[5mC]*dT*dT*d[5mC]*dA*k[5mC]*k[5mC]*eT; antisense) [compound 548024] | – | 300 | 28 | 57 | 84 | 82 | – | – | 79 | – | – | – | – | – | – | – |
| 548521 (antisense e[5mC]*eA*kG*d[5mC]*dT*d[5mC]*d[5mC]*d[5mC]*dT*dT*dA*d[5mC]*dT*kA*kG*eG) [compound 548521] | – | > 3000 | 21 | 0 | 3 | 1 | – | – | – | – | – | – | 61 | – | – | – |
| 548043 (eA*eT*kT*dT*dG*dT*dG*dA*dG*dA*dA*dA*dG*kG*kT*eG; antisense) [compound 548043] | – | 300 | 14 | 60 | 90 | 92 | – | – | 76 | – | – | – | – | – | – | – |
| 548583 (eG*eG*kG*dA*dA*dT*dT*dT*dA*dT*dG*d[5mC]*dT*kG*k[5mC]*e[5mC]; antisense) [compound 548583] | – | 200 | 43 | 46 | 93 | 88 | – | – | – | – | – | 79 | – | – | – | – |
| 547946 (eG*eA*kA*d[5mC]*dT*dT*dG*dG*dT*dG*dT*dG*d[5mC]*k[5mC]*kA*e[5mC]; antisense) [compound 547946] | 81 | 500 | 0 | 47 | 74 | – | – | – | – | – | – | – | – | – | – | – |
| 548195 (eT*eT*k[5mC]*dT*dG*d[5mC]*d[5mC]*dA*dA*d[5mC]*dA*dG*dT*kT*kT*e[5mC]; antisense) [compound 548195] | – | 800 | 5 | 23 | 61 | 76 | 84 | – | – | – | – | – | – | – | – | – |
| 548128 (eA*eT*kT*dG*d[5mC]*d[5mC]*dT*dA*dG*dA*d[5mC]*dT*d[5mC]*kT*kG*eG; antisense) [compound 548128] | – | 1100 | 14 | 29 | 49 | 66 | – | – | – | – | – | – | – | 55 | – | – |
| 548197 (eT*eG*k[5mC]*dT*dT*dG*dG*d[5mC]*dT*dT*d[5mC]*dA*dA*kT*kA*eT; antisense) [compound 548197] | – | 800 | 33 | 37 | 51 | 75 | 68 | – | – | – | – | – | – | – | – | – |
| 547859 (antisense e[5mC]*e[5mC]*kT*d[5mC]*dT*d[5mC]*dA*dT*dA*dT*d[5mC]*dA*dA*k[5mC]*kT*e[5mC]) [compound 547859] | – | 300 | 29 | 56 | 83 | 78 | – | – | – | – | – | – | – | – | 77 | 88 |
